Laboratory results: PMC12040169 (PLOS Biology, 2025)

Experiment: in vitro
Conditions: human, hela cells, % viability
Compound `CC(C)(C)c1ccc(C(=O)Nc2nsc(-c3ccc(Cl)cc3)n2)cc1` [CBK113176] has a viability at 28.5 h, 10 µM of 89.6%.
`CCC(Oc1cc(C)ccc1Cl)C(=O)Nc1sccc1C(N)=O` (centres unmarked) [CBK268152] gave a viability at 28.5 h, 10 µM of 105%.
For `CSc1ncc(Cl)c(C(=O)Nc2nnc(SC/C=C/c3ccccc3)s2)n1` [CBK268691], the viability at 28.5 h, 10 µM was 93.5%.
For `CS(=O)(=O)Nc1nccnc1N1CCNCC1` [CBK074045T], the viability at 28.5 h, 10 µM was 105%.
Compound `O=C(c1ccncc1)N1CCc2cc(S(=O)(=O)N3CCOCC3)ccc21` [CBK287800] has a viability at 28.5 h, 10 µM of 92.8%.
In the case of `O=C(Nc1ccccc1[N+](=O)[O-])c1cc(S(=O)(=O)Nc2ccccn2)ccc1Cl` [CBK263229], the viability at 28.5 h, 10 µM was 87.8%.
`CCOC(=O)c1[nH]c2ccccc2c1NC(=O)c1ccc(Cl)c(C)c1` [CBK160146] gave a viability at 28.5 h, 10 µM of 87%.
Compound `O=C(NCC1(c2ccccc2Cl)CC1)c1ccc(=O)n(CC(=O)N2CCCCC2)c1` [CBK286077] has a viability at 28.5 h, 10 µM of 84.8%.
`Brc1ccc(Nc2ncnc3nc[nH]c23)cc1` [CBK287386] gave a viability at 28.5 h, 10 µM of 105%.
`O=[N+]([O-])c1ccccc1N/C(=N/S(=O)(=O)c1ccccc1)c1ccccc1` [CBK262336] gave a viability at 28.5 h, 10 µM of 85.8%.
Compound `S=C(NCc1ccco1)NCc1cn(-c2ccccc2)nc1-c1ccccc1` [CBK266895] has a viability at 28.5 h, 10 µM of 112%.
For `Cn1c(=O)c2c(O)cc(=O)oc2c2ccccc21` [CBK003546], the viability at 28.5 h, 10 µM was 93.3%.
Compound `CCN1CCN(c2ccc(C(=O)OC)cc2NC(=O)c2ccccc2C)CC1` [CBK269902] has a viability at 28.5 h, 10 µM of 92.9%.
Work on `CCC(C)c1ccc(NC(=O)CSc2nc3cccnc3[nH]2)cc1` (centres unmarked) [CBK264349] yielded a viability at 28.5 h, 10 µM of 86.9%.
`COc1ccc(C(=O)N2CCN(Cc3cc(OC)ccc3OC)CC2)cc1` [CBK263032] showed a viability at 28.5 h, 10 µM of 88.8%.
With `Cc1nnc2sc(-c3ccc(NC(=S)NC(=O)c4cc5ccccc5o4)cc3)nn12` [CBK266795] the viability at 28.5 h, 10 µM was 100%.
For `Cc1n[nH]c(-c2ccccc2NC(=O)Cc2sc(C)nc2-c2cccs2)n1` [CBK297737], the viability at 28.5 h, 10 µM was 88.5%.
Compound `CC(C)(C)c1ccc([S+]([O-])c2cncc(N3CCNCC3)n2)cc1` (centres unmarked) [CBK051434C] has a viability at 28.5 h, 10 µM of 88.4%.
For `Cc1nn(CC(=O)N(C)CCn2ccnc2C)c(=O)c2ccccc12` [CBK306536], the viability at 28.5 h, 10 µM was 91.8%.
Compound `CCOc1ccc(-c2csc(NC(=O)c3cccnc3)n2)cc1` [CBK094747] has a viability at 28.5 h, 10 µM of 89.2%.
In the case of `COc1ccccc1Cc1cccc(C2CCN(C(=O)c3ccccc3)CC2)n1` [CBK286236], the viability at 28.5 h, 10 µM was 101%.
`CC(C)(C)c1cn2c3ccccc3nc2n1CCN1CCOCC1` [CBK278252C] gave a viability at 28.5 h, 10 µM of 103%.
In the case of `Fc1ccccc1COc1ccccc1CNCCN1CCOCC1` [CBK278222C], the viability at 28.5 h, 10 µM was 96.4%.
In the case of `Cc1nn(Cc2ccccc2)c(C)c1NC(=O)CSc1nc2c(c(C(F)(F)F)n1)CCc1ccccc1-2` [CBK266112], the viability at 28.5 h, 10 µM was 105%.
`COc1ccc(CN2CCN(Cc3ccco3)CC2)cc1OCc1ccccc1` [CBK264225] showed a viability at 28.5 h, 10 µM of 105%.
`COc1cccc(NC(=O)N2CCC3(CC2)NC(=O)c2cc(-c4ccoc4)ccc2O3)c1` [CBK115855] gave a viability at 28.5 h, 10 µM of 102%.
`CC1CCCN(Cc2c(C3CCOCC3)[nH]c3ncccc23)C1` (centres unmarked) [CBK284687] gave a viability at 28.5 h, 10 µM of 97%.
`c1ccc(CNc2c(-c3ccco3)nc3cnccn23)cc1` [CBK283933] showed a viability at 28.5 h, 10 µM of 90.6%.
For `O=C(O)CNC1=NC2(CCCCC2)Cc2ccccc21` [CBK287001], the viability at 28.5 h, 10 µM was 78.2%.
Work on `N#C/C(=C/c1ccc(-c2ccc(S(N)(=O)=O)cc2)o1)c1nc2ccccc2s1` [CBK264480] yielded a viability at 28.5 h, 10 µM of 83.8%.
In the case of `O=C(NC(=S)Nc1ccc2oc(-c3cccc4ccccc34)nc2c1)c1ccco1` [CBK263691], the viability at 28.5 h, 10 µM was 95.5%.
For `CC(C)(C)c1n[nH]c(C2CN(C(=O)CCCn3cccn3)CCO2)n1` (centres unmarked) [CBK305198], the viability at 28.5 h, 10 µM was 88.1%.
`O=C(OCc1ccccc1)N1CCC(c2nc3ccc(Br)cc3[nH]2)CC1` [CBK153849] gave a viability at 28.5 h, 10 µM of 93.7%.
Compound `COc1cccc(CNCCN2CCOCC2)c1O` [CBK278183C] has a viability at 28.5 h, 10 µM of 90.2%.
With `COc1ccc(-n2c(CNCc3ccc4c(c3)OCO4)nc3ccccc3c2=O)cc1` [CBK074522] the viability at 28.5 h, 10 µM was 102%.
Work on `Cn1c(=O)n(CC(=O)NC2CC2)c2cccnc21` [CBK104297] yielded a viability at 28.5 h, 10 µM of 98.7%.
Compound `CCCNCC(=O)N1CN(C(=O)c2ccc(C)cc2)C(C)(C)C1` [CBK089572C] has a viability at 28.5 h, 10 µM of 111%.
`Cc1cc(C)nc(NC(=N)NCCc2c[nH]c3ccccc23)n1` [CBK266321] showed a viability at 28.5 h, 10 µM of 70.2%.
Work on `COc1cc(/C=C2\C(=O)NN(c3ccccc3)C2=O)ccc1OCCOc1cc(C)ccc1C` [CBK263947] yielded a viability at 28.5 h, 10 µM of 80.5%.
`Cc1nc(O)cc(C2CCN(C(=O)c3csc4c3CCCC4)CC2)n1` [CBK307618] gave a viability at 28.5 h, 10 µM of 104%.
Compound `COc1ccc(CCN(Cc2ccc(Cl)c(Cl)c2)C(=O)Nc2cccnc2)cc1OC` [CBK158797] has a viability at 28.5 h, 10 µM of 96.1%.
With `O=C(O)c1ccc(NS(=O)(=O)c2ccc(C(F)(F)F)cc2[N+](=O)[O-])cc1` [CBK034063] the viability at 28.5 h, 10 µM was 113%.

Same assay, conditions: human, hela cells, % viability, bulk resorufin, single well
`c1cc(-c2ccc3c(c2)COC2(CCNCC2)O3)c2cc[nH]c2c1` [CBK093812] gave a viability at 28.5 h, 10 µM of 108%.
Work on `CC(=O)N1CCC2(CC1)OCc1cc(-c3ccc(C)o3)ccc1O2` [CBK060889] yielded a viability at 28.5 h, 10 µM of 87.1%.
